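Test compounds were applied to cells in 96-well plates for 48 hours at 5 doses. GI50 marks 50% less growth. Definition used: TGI = concentration required for complete inhibition of growth.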
Tests used:
Assay in all cases: NCI tumour cell line growth inhibition, 48 h
786-0 renal = system: 786-0 renal
A498 renal = system: A498 renal
A549 NSCLC = system: A549 NSCLC
ACHN renal = system: ACHN renal
BT-549 breast = system: BT-549 breast
CAKI-1 renal = system: CAKI-1 renal
CCRF-CEM leukemia = system: CCRF-CEM leukemia
COLO 205 colon = system: COLO 205 colon
DU-145 prostate = system: DU-145 prostate
EKVX NSCLC = system: EKVX NSCLC
HCC-2998 colon = system: HCC-2998 colon
HCT-116 colon = system: HCT-116 colon
HCT-15 colon = system: HCT-15 colon
HL-60(TB) leukemia = system: HL-60(TB) leukemia
HOP-62 NSCLC = system: HOP-62 NSCLC
HOP-92 NSCLC = system: HOP-92 NSCLC
HS 578T breast = system: HS 578T breast
HT29 colon = system: HT29 colon
IGROV1 ovarian = system: IGROV1 ovarian
K-562 leukemia = system: K-562 leukemia
KM12 colon = system: KM12 colon
LOX IMVI melanoma = system: LOX IMVI melanoma
M14 melanoma = system: M14 melanoma
MALME-3M melanoma = system: MALME-3M melanoma
MCF7 breast = system: MCF7 breast
MDA-MB-231 breast = system: MDA-MB-231 breast
MDA-MB-435 = system: MDA-MB-435
MDA-MB-468 breast = system: MDA-MB-468 breast
MOLT-4 leukemia = system: MOLT-4 leukemia
NCI-H226 lung = system: NCI-H226 lung
NCI-H23 lung = system: NCI-H23 lung
NCI-H460 lung = system: NCI-H460 lung
NCI-H522 lung = system: NCI-H522 lung
NCI/ADR-RES ovarian = system: NCI/ADR-RES ovarian
OVCAR-3 ovarian = system: OVCAR-3 ovarian
OVCAR-4 ovarian = system: OVCAR-4 ovarian
OVCAR-5 ovarian = system: OVCAR-5 ovarian
OVCAR-8 ovarian = system: OVCAR-8 ovarian
PC-3 prostate = system: PC-3 prostate
RPMI-8226 leukemia = system: RPMI-8226 leukemia
RXF 393 renal = system: RXF 393 renal
SF-268 CNS = system: SF-268 CNS
SF-295 CNS = system: SF-295 CNS
SF-539 CNS = system: SF-539 CNS
SK-MEL-2 melanoma = system: SK-MEL-2 melanoma
SK-MEL-28 melanoma = system: SK-MEL-28 melanoma
SK-MEL-5 melanoma = system: SK-MEL-5 melanoma
SK-OV-3 ovarian = system: SK-OV-3 ovarian
SN12C renal = system: SN12C renal
SNB-19 CNS = system: SNB-19 CNS
SNB-75 CNS = system: SNB-75 CNS
SR leukemia = system: SR leukemia
SW-620 colon = system: SW-620 colon
T-47D breast = system: T-47D breast
TK-10 renal = system: TK-10 renal
U251 CNS = system: U251 CNS
UACC-257 melanoma = system: UACC-257 melanoma
UACC-62 melanoma = system: UACC-62 melanoma
UO-31 renal = system: UO-31 renal

Q: For `CCOC(=O)c1sc(N/N=C(\C)c2ccc3c(c2)Nc2ccccc2S3)nc1C`, which GI50 (786-0 renal) is on record?
A: 7.21 µM

Q: What about the TGI (786-0 renal) of the same compound?
A: 23.1 µM

Q: And the GI50 (A498 renal)?
A: 16.1 µM

Q: And the TGI (A498 renal)?
A: 45.5 µM

Q: What about the GI50 (A549 NSCLC) of the same compound?
A: 6.4 µM

Q: What about the TGI (A549 NSCLC) of the same compound?
A: 38.8 µM

Q: What about the GI50 (ACHN renal) of the same compound?
A: 6.1 µM

Q: And the TGI (ACHN renal)?
A: 19.1 µM

Q: And the GI50 (BT-549 breast)?
A: 18.4 µM

Q: And the TGI (BT-549 breast)?
A: 49.3 µM

Q: And the GI50 (CAKI-1 renal)?
A: 9.09 µM

Q: And the TGI (CAKI-1 renal)?
A: 22.8 µM

Q: And the GI50 (CCRF-CEM leukemia)?
A: 6.52 µM

Q: And the TGI (CCRF-CEM leukemia)?
A: 94.4 µM

Q: And the GI50 (COLO 205 colon)?
A: 9.42 µM

Q: And the TGI (COLO 205 colon)?
A: 32.2 µM

Q: And the GI50 (DU-145 prostate)?
A: 8.82 µM

Q: What about the TGI (DU-145 prostate) of the same compound?
A: 29.1 µM

Q: What about the GI50 (EKVX NSCLC) of the same compound?
A: 5.82 µM

Q: And the TGI (EKVX NSCLC)?
A: 22.8 µM

Q: What about the GI50 (HCC-2998 colon) of the same compound?
A: 3.71 µM

Q: And the TGI (HCC-2998 colon)?
A: 12.8 µM

Q: And the GI50 (HCT-116 colon)?
A: 6.64 µM

Q: And the TGI (HCT-116 colon)?
A: > 100 µM

Q: And the GI50 (HCT-15 colon)?
A: 3.4 µM

Q: And the TGI (HCT-15 colon)?
A: 14.8 µM

Q: And the GI50 (HL-60(TB) leukemia)?
A: 4.89 µM

Q: And the TGI (HL-60(TB) leukemia)?
A: > 100 µM

Q: And the GI50 (HOP-62 NSCLC)?
A: 13.3 µM

Q: And the TGI (HOP-62 NSCLC)?
A: 29.6 µM

Q: What about the GI50 (HOP-92 NSCLC) of the same compound?
A: 4.9 µM

Q: What about the TGI (HOP-92 NSCLC) of the same compound?
A: 19.9 µM

Q: And the GI50 (HS 578T breast)?
A: 10.5 µM

Q: What about the TGI (HS 578T breast) of the same compound?
A: 50.6 µM

Q: What about the GI50 (HT29 colon) of the same compound?
A: 11.7 µM

Q: What about the TGI (HT29 colon) of the same compound?
A: > 100 µM

Q: And the GI50 (IGROV1 ovarian)?
A: 11.3 µM

Q: And the TGI (IGROV1 ovarian)?
A: 26 µM

Q: And the GI50 (K-562 leukemia)?
A: 4.03 µM

Q: And the TGI (K-562 leukemia)?
A: > 100 µM

Q: And the GI50 (KM12 colon)?
A: 3.45 µM

Q: What about the TGI (KM12 colon) of the same compound?
A: 19.4 µM

Q: What about the GI50 (LOX IMVI melanoma) of the same compound?
A: 3.14 µM

Q: What about the TGI (LOX IMVI melanoma) of the same compound?
A: 12.4 µM

Q: What about the GI50 (M14 melanoma) of the same compound?
A: 8.42 µM

Q: What about the TGI (M14 melanoma) of the same compound?
A: 61.8 µM

Q: What about the GI50 (MALME-3M melanoma) of the same compound?
A: 13.7 µM

Q: And the TGI (MALME-3M melanoma)?
A: 33.6 µM

Q: What about the GI50 (MCF7 breast) of the same compound?
A: 3.36 µM

Q: And the TGI (MCF7 breast)?
A: 17.5 µM

Q: What about the GI50 (MDA-MB-231 breast) of the same compound?
A: 5.73 µM

Q: What about the TGI (MDA-MB-231 breast) of the same compound?
A: 19.1 µM

Q: And the GI50 (MDA-MB-435)?
A: 10.7 µM

Q: What about the TGI (MDA-MB-435) of the same compound?
A: 33.6 µM

Q: What about the GI50 (MDA-MB-468 breast) of the same compound?
A: 3.45 µM

Q: What about the TGI (MDA-MB-468 breast) of the same compound?
A: 15.1 µM

Q: And the GI50 (MOLT-4 leukemia)?
A: 6.33 µM

Q: What about the TGI (MOLT-4 leukemia) of the same compound?
A: > 100 µM

Q: And the GI50 (NCI-H226 lung)?
A: 10.9 µM

Q: What about the TGI (NCI-H226 lung) of the same compound?
A: 29.3 µM

Q: What about the GI50 (NCI-H23 lung) of the same compound?
A: 8.65 µM

Q: And the TGI (NCI-H23 lung)?
A: 21.3 µM

Q: What about the GI50 (NCI-H460 lung) of the same compound?
A: 5 µM

Q: What about the TGI (NCI-H460 lung) of the same compound?
A: 24.2 µM

Q: And the GI50 (NCI-H522 lung)?
A: 10.7 µM

Q: And the TGI (NCI-H522 lung)?
A: 34.8 µM

Q: And the GI50 (NCI/ADR-RES ovarian)?
A: 8.87 µM

Q: And the TGI (NCI/ADR-RES ovarian)?
A: 22.2 µM

Q: What about the GI50 (OVCAR-3 ovarian) of the same compound?
A: 12.8 µM

Q: And the TGI (OVCAR-3 ovarian)?
A: 27.3 µM

Q: What about the GI50 (OVCAR-4 ovarian) of the same compound?
A: 10.7 µM

Q: And the TGI (OVCAR-4 ovarian)?
A: 53.7 µM

Q: And the GI50 (OVCAR-5 ovarian)?
A: 11.6 µM

Q: What about the TGI (OVCAR-5 ovarian) of the same compound?
A: 67.6 µM

Q: And the GI50 (OVCAR-8 ovarian)?
A: 12 µM

Q: And the TGI (OVCAR-8 ovarian)?
A: 39.6 µM

Q: What about the GI50 (PC-3 prostate) of the same compound?
A: 6.04 µM

Q: And the TGI (PC-3 prostate)?
A: 24 µM

Q: And the GI50 (RPMI-8226 leukemia)?
A: 3.96 µM

Q: What about the TGI (RPMI-8226 leukemia) of the same compound?
A: > 100 µM

Q: And the GI50 (RXF 393 renal)?
A: 3.2 µM

Q: What about the TGI (RXF 393 renal) of the same compound?
A: 13.3 µM

Q: What about the GI50 (SF-268 CNS) of the same compound?
A: 13.1 µM

Q: And the TGI (SF-268 CNS)?
A: 40.4 µM

Q: What about the GI50 (SF-295 CNS) of the same compound?
A: 3.38 µM

Q: What about the TGI (SF-295 CNS) of the same compound?
A: 14.1 µM

Q: And the GI50 (SF-539 CNS)?
A: 10.1 µM

Q: What about the TGI (SF-539 CNS) of the same compound?
A: 21.7 µM

Q: What about the GI50 (SK-MEL-2 melanoma) of the same compound?
A: 15.4 µM

Q: And the TGI (SK-MEL-2 melanoma)?
A: 44.8 µM

Q: And the GI50 (SK-MEL-28 melanoma)?
A: 11.1 µM

Q: And the TGI (SK-MEL-28 melanoma)?
A: 26.1 µM

Q: And the GI50 (SK-MEL-5 melanoma)?
A: 7.62 µM

Q: What about the TGI (SK-MEL-5 melanoma) of the same compound?
A: 27.2 µM

Q: And the GI50 (SK-OV-3 ovarian)?
A: 16.9 µM

Q: What about the TGI (SK-OV-3 ovarian) of the same compound?
A: 39.7 µM

Q: And the GI50 (SN12C renal)?
A: 11.5 µM

Q: What about the TGI (SN12C renal) of the same compound?
A: 28.3 µM

Q: And the GI50 (SNB-19 CNS)?
A: 12.8 µM

Q: What about the TGI (SNB-19 CNS) of the same compound?
A: 25.6 µM

Q: And the GI50 (SNB-75 CNS)?
A: 8.97 µM

Q: What about the TGI (SNB-75 CNS) of the same compound?
A: 31.2 µM

Q: What about the GI50 (SR leukemia) of the same compound?
A: > 100 µM

Q: What about the TGI (SR leukemia) of the same compound?
A: > 100 µM

Q: What about the GI50 (SW-620 colon) of the same compound?
A: 11.9 µM

Q: And the TGI (SW-620 colon)?
A: 45.2 µM

Q: And the GI50 (T-47D breast)?
A: 3.94 µM

Q: And the TGI (T-47D breast)?
A: 49.2 µM

Q: What about the GI50 (TK-10 renal) of the same compound?
A: 16.6 µM

Q: What about the TGI (TK-10 renal) of the same compound?
A: 33.5 µM

Q: What about the GI50 (U251 CNS) of the same compound?
A: 14.1 µM

Q: And the TGI (U251 CNS)?
A: 54 µM

Q: And the GI50 (UACC-257 melanoma)?
A: 12.4 µM

Q: And the TGI (UACC-257 melanoma)?
A: 40.4 µM

Q: And the GI50 (UACC-62 melanoma)?
A: 6.06 µM

Q: What about the TGI (UACC-62 melanoma) of the same compound?
A: 20.6 µM

Q: What about the GI50 (UO-31 renal) of the same compound?
A: 6.67 µM

Q: And the TGI (UO-31 renal)?
A: 20.7 µM

From PubChem BioAssay (NCI)
